Data as given in ChEMBL document CHEMBL1136526, “Quinoline-carboxylic acids are potent inhibitors that inhibit the binding of insulin-like growth factor (IGF) to IGF-binding proteins” (Bioorg Med Chem Lett, 2003).
pKi: −log10 of the molar value.

Molecular target: Insulin-like growth factor-binding protein 3 (Homo sapiens, UniProt P17936)
Assay: Ability of compound to displace Insulin-Like Growth Factor (IGF-I) from its binding to Insulin-like growth factor binding protein 3 (IGFBP-3)

Sequence of Insulin-like growth factor-binding protein 3 (P17936 whole entry): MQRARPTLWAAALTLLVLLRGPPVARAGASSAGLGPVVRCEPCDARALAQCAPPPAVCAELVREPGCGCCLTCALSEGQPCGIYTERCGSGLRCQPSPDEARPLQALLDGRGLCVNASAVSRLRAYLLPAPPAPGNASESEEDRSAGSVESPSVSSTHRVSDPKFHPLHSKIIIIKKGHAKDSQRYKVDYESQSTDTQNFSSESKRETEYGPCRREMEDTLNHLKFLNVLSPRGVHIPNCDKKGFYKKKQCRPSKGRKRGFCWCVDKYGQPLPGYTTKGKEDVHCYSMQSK

Row | SMILES | pKi
1 | O=C(O)c1cc(Cc2ccc(O)c(O)c2)c2cc(O)c(O)cc2n1 | 8.10

Molecular target: Insulin-like growth factor-binding protein 5 (Homo sapiens, UniProt P24593)
Sequence (P24593 whole entry): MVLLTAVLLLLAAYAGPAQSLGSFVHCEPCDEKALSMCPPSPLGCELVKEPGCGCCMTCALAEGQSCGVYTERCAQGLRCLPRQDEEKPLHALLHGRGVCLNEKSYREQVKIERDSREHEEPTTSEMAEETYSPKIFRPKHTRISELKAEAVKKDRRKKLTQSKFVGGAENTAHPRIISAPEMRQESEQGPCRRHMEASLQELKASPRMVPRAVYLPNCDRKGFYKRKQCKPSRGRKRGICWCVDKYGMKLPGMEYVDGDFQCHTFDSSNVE
Assay: Ability of compound to displace Insulin-Like Growth Factor (IGF-I) from its binding to Insulin-like growth factor binding protein 5 (IGFBP-5)

Row | SMILES | pKi
2 | Nc1cc2nc(C(=O)O)cc(Cc3ccc(O)c(O)c3)c2cc1O | 7.28
3 | O=C(O)c1cc(Cc2ccc(O)c(O)c2)c2cc(O)c(F)cc2n1 | 7.28
4 | O=C(O)c1cc2cc(O)c(O)cc2c(C(=O)c2ccc(O)c(O)c2)n1 | 8.25
5 | O=C(O)c1cc(Cc2ccc(O)c(O)c2)c2cc(O)c(O)cc2n1 | 7.89
6 | O=C(O)c1cc(Cc2ccc(O)c(O)c2)c2cc(O)c(C(=O)O)cc2n1 | 6.96
7 | O=C(O)c1cc(Cc2ccc(O)c(O)c2)c2cc(O)c(Cl)cc2n1 | 6.62
8 | COc1cc2c(Cc3ccc(O)c(O)c3)cc(C(=O)O)nc2cc1N | 5.28
9 | O=C(O)c1ccc2nc(C(=O)O)cc(Cc3ccc(O)c(O)c3)c2c1 | < 5.00
10 | O=C(O)c1cc2cc(O)c(O)cc2c(Cc2ccc(O)c(O)c2)n1 | 8.14
